# Results: patent US20230210797A1, “PREVENTING AND TREATING HYPOGLYCEMIA” (DIAMYD MEDICAL AB, priority 2019, published 2023)
# Tests used:
# epinephrine = assay: Hypoglycemic clamp: plasma epinephrine levels; assay type: in vivo, human; conditions: for epinephrine levels, Change from baseline, Mean (SD) / epinephrine levels, Change from baseline, Median (Min, Max) / epinephrine levels, Observed value, Mean (SD) / epinephrine levels, Observed value, Median (Min, Max): C-peptide undetectable
# Protocol: (§1) In order to evaluate the counterregulatory hormone response to hypoglycemia, a hypoglycemic clamp will be performed. The Hypoglycemic Clamp must be performed according to the instructions in the Operations Manual. (Appendix 3)
# (§2) The patient should: • Come to the study site following an overnight fast (>10 hours), i.e. the patient may not eat but is permitted to drink water • Not have taken the Remygen and, if applicable, Alprazolam dose in the morning • Not take short acting/direct acting insulin within 6 hours before the investigation. • The patient is allowed to take base-insulin day/night before, but not in the morning before the investigation.
# (§3) Patients with CSII (insulin pump) must continue with their basal dose insulin, but not add bolus dose during the last 6 hours before the investigation.
# (§4) If a patient has a blood sugar level <4 mmol/L in the morning of the scheduled visit, the patient is allowed to take dextrose tablets and then come to the study site. The patient is allowed to perform the investigation if the blood sugar level is >4 mmol/L.
# (§5) In the dose-escalation part of the study, the patient will take study drug 30 min prior to start of the hypoglycemic clamp. In the main study, the study drug will instead be taken after finalization of the hypoglycemic clamp. Baseline blood samples will be obtained for glucose, glucagon, epinephrine, norepinephrine, growth hormone and cortisol. The clamp will then be initiated by an intravenous insulin infusion at a rate of 2 mU×kg^−1×min^−1. Glucose 100 mg/ml will then be administered in variable infusion rates to clamp the blood glucose concentration at 5.5 mmol/land then at 2.5 mmol/land kept stable for 30 min. Blood glucose will be evaluated repeatedly in order to find the optimal glucose infusion rate. Blood sampling to determined levels of counterregulatory hormones as described above will be performed at each of these target levels when a stable glucose concentration has been reached. The insulin infusion will thereafter be terminated and the patient is allowed to eat and will be observed until normoglycemia is achieved. If necessary, additional glucose administration will be given to allow blood glucose concentrations to normalize.
# (§6) Plasma glucose was first lowered to normoglycemic levels (5.5 mmol/L) and hormone levels monitored, and then to hypoglycemic levels (2.5 mmol/L) and hormone levels monitored. Difference was calculated as a measurement of the response to hypoglycemia.
# norepinephrine = assay: Hypoglycemic clamp: plasma norepinephrine levels; assay type: in vivo, human; conditions: Visit 5, 200 mg GABA per day; event 2.5 mmol/L; C-peptide undetectable; n=5
# Protocol: as §1, §2, §3, §4, §5
# Only patients with c-peptide levels that were undetectable (in a standard assay, i.e. <0.01 nmol/L) are included (5 of 6) in the data below.
# as §6, with “Plasma levels of glucagon, cortisol, epinephrine, growth hormone and glucose were measured at baseline (increased glucose in T1D subjects). Plasma” for “Plasma”
# [1] = Visit 5, 200 mg GABA per day, Event 2.5 mmol/L
# [2] = Visit 5, 200 mg GABA per day, Event 5.5 mmol/L
# [3] = Visit 5, 200 mg GABA per day, Event Baseline
# [4] = Visit 5, 200 mg GABA per day, Event Diff 2.5-5.5 mmol/L
# [5] = Visit 7, 600 mg GABA per day, Event 2.5 mmol/L
# [6] = Visit 7, 600 mg GABA per day, Event 5.5 mmol/L
# [7] = Visit 7, 600 mg GABA per day, Event Baseline
# [8] = Visit 7, 600 mg GABA per day, Event Diff 2.5-5.5 mmol/L
# [9] = Visit 9, 1200 mg GABA per day, Event 2.5 mmol/L
# [10] = Visit 9, 1200 mg GABA per day, Event 5.5 mmol/L
# [11] = Visit 9, 1200 mg GABA per day, Event Baseline
# [12] = Visit 9, 1200 mg GABA per day, Event Diff 2.5-5.5 mmol/L
smiles,measurement,setting,value
"NCCCC(=O)O [GABA, Gamma-amino butyric acid]","epinephrine levels, Change from baseline, Mean (SD)",epinephrine; [1],0.800 (0.720) nmol/L
same,"epinephrine levels, Change from baseline, Median (Min, Max)",epinephrine; [1],"0.400 (0.30, 2.00) nmol/L"
same,"epinephrine levels, Observed value, Mean (SD)",epinephrine; [1],1.640 (1.014) nmol/L
same,"epinephrine levels, Observed value, Median (Min, Max)",epinephrine; [1],"1.200 (0.50, 2.90) nmol/L"
same,"epinephrine levels, Change from baseline, Mean (SD)",epinephrine; [2],0.000 (0.000) nmol/L
same,"epinephrine levels, Change from baseline, Median (Min, Max)",epinephrine; [2],"0.000 (0.00, 0.00) nmol/L"
same,"epinephrine levels, Observed value, Mean (SD)",epinephrine; [2],0.150 (0.000) nmol/L
same,"epinephrine levels, Observed value, Median (Min, Max)",epinephrine; [2],"0.150 (0.15, 0.15) nmol/L"
same,"epinephrine levels, Change from baseline, Mean (SD)",epinephrine; [3],0.000 (0.000) nmol/L
same,"epinephrine levels, Change from baseline, Median (Min, Max)",epinephrine; [3],"0.000 (0.00, 0.00) nmol/L"
same,"epinephrine levels, Observed value, Mean (SD)",epinephrine; [3],0.150 (0.000) nmol/L
same,"epinephrine levels, Observed value, Median (Min, Max)",epinephrine; [3],"0.150 (0.15, 0.15) nmol/L"
same,"epinephrine levels, Change from baseline, Mean (SD)",epinephrine; [4],0.800 (0.720) nmol/L
same,"epinephrine levels, Change from baseline, Median (Min, Max)",epinephrine; [4],"0.400 (0.30, 2.00) nmol/L"
same,"epinephrine levels, Observed value, Mean (SD)",epinephrine; [4],1.490 (1.014) nmol/L
same,"epinephrine levels, Observed value, Median (Min, Max)",epinephrine; [4],"1.050 (0.35, 2.75) nmol/L"
same,"epinephrine levels, Change from baseline, Mean (SD)",epinephrine; [5],0.560 (0.585) nmol/L
same,"epinephrine levels, Change from baseline, Median (Min, Max)",epinephrine; [5],"0.800 (−0.40, 1.10) nmol/L"
same,"epinephrine levels, Observed value, Mean (SD)",epinephrine; [5],1.400 (0.579) nmol/L
same,"epinephrine levels, Observed value, Median (Min, Max)",epinephrine; [5],"1.700 (0.60, 2.00) nmol/L"
same,"epinephrine levels, Change from baseline, Median (Min, Max)",epinephrine; [6],"0.000 (0.00, 0.25) nmol/L"
same,"epinephrine levels, Observed value, Median (Min, Max)",epinephrine; [6],"0.150 (0.15, 0.40) nmol/L"
same,"epinephrine levels, Change from baseline, Mean (SD)",epinephrine; [7],0.000 (0.000) nmol/L
same,"epinephrine levels, Change from baseline, Median (Min, Max)",epinephrine; [7],"0.000 (0.00, 0.00) nmol/L"
same,"epinephrine levels, Observed value, Mean (SD)",epinephrine; [7],0.150 (0.000) nmol/L
same,"epinephrine levels, Observed value, Median (Min, Max)",epinephrine; [7],"0.150 (0.15, 0.15) nmol/L"
same,"epinephrine levels, Change from baseline, Mean (SD)",epinephrine; [8],0.510 (0.564) nmol/L
same,"epinephrine levels, Change from baseline, Median (Min, Max)",epinephrine; [8],"0.600 (−0.40, 1.10) nmol/L"
same,"epinephrine levels, Observed value, Mean (SD)",epinephrine; [8],1.200 (0.630) nmol/L
same,"epinephrine levels, Change from baseline, Mean (SD)",epinephrine; [9],0.670 (0.709) nmol/L
same,"epinephrine levels, Change from baseline, Median (Min, Max)",epinephrine; [9],"0.500 (0.00, 1.70) nmol/L"
same,"epinephrine levels, Observed value, Mean (SD)",epinephrine; [9],1.510 (1.070) nmol/L
same,"epinephrine levels, Observed value, Median (Min, Max)",epinephrine; [9],"1.200 (0.15, 2.60) nmol/L"
same,"epinephrine levels, Change from baseline, Mean (SD)",epinephrine; [10],0.000 (0.000) nmol/L
same,"epinephrine levels, Change from baseline, Median (Min, Max)",epinephrine; [10],"0.000 (0.00, 0.00) nmol/L"
same,"epinephrine levels, Observed value, Mean (SD)",epinephrine; [10],0.150 (0.000) nmol/L
same,"epinephrine levels, Observed value, Median (Min, Max)",epinephrine; [10],"0.150 (0.15, 0.15) nmol/L"
same,"epinephrine levels, Change from baseline, Mean (SD)",epinephrine; [11],0.000 (0.000) nmol/L
same,"epinephrine levels, Change from baseline, Median (Min, Max)",epinephrine; [11],"0.000 (0.00, 0.00) nmol/L"
same,"epinephrine levels, Observed value, Mean (SD)",epinephrine; [11],0.150 (0.000) nmol/L
same,"epinephrine levels, Observed value, Median (Min, Max)",epinephrine; [11],"0.150 (0.15, 0.15) nmol/L"
same,"epinephrine levels, Change from baseline, Mean (SD)",epinephrine; [12],0.670 (0.709) nmol/L
same,"epinephrine levels, Change from baseline, Median (Min, Max)",epinephrine; [12],"0.500 (0.00, 1.70) nmol/L"
same,"epinephrine levels, Observed value, Median (Min, Max)",epinephrine; [12],"1.050 (0.00, 2.45) nmol/L"
same,"Counter regulatory response of Epinephrine, effect of GABA treatment",epinephrine; change in levels when clamping to 2.5 mmol/L from 5.5 mmol/L,increased
same,"Norepinephrine, change from baseline, Mean (SD)",norepinephrine,−0.44 (0.61) nmol(L
same,"Norepinephrine, change from baseline, Median (Min, Max)",norepinephrine,"−0.30 (−1.3, 0.2) nmol(L"
